Reference: patent publication US20240207202A1, “COMBINATION THERAPIES TARGETING MITOCHONDRIAL BIOGENESIS FOR CANCER THERAPY” (The Wistar Institute of Anatomy and Biology, priority 2015, published 2024)

Experiments:
Assay type in all cases: cell-based, human
[1] = test system: mitochondrial DNA copy number; test: Mitochondrial DNA copy number; settings: WM9, Gamitrinib 1 μM combined with PLX4720 and PD0325901 or LGX818 and MEK162
Method: Mitochondria DNA copy number was measured by the ratio of a mitochondrial gene, mtDNA-3, and a nuclear gene, 18S rRNA. The mtDNA-3/18S rRNA ratio was quantified by qRT-PCR on an Applied Biosystems 7500 Fast Real-Time PCR System. The reaction mixtures (25 μL final volume) contained 12.5 μL Fast SYBR Green Master Mix, 500 nM of each primer and 10 ng genomic DNA. The reaction conditions were 95° C. for 20 s, followed by 45 cycles of 95° C. for 3 s and 60° C. for 30 s. The relative mtDNA copy number was analyzed by the 2-ΔΔCt method.

[2] = test system: mitochondrial respiration; test: Real-time oxygen consumption rates (Seahorse XF 24) in WM9 cells; settings: WM9, 72 h, Gamitrinib 1 μM added to PLX4720 10 μM and PD0325901 1 μM
Method: FIGS. 5A-5I. Gamitrinib, An Inhibitor of Mitochondrial Hsp90-directed Protein Folding, Suppresses Mitochondrial Biogenesis and Bioenergetics (A) Induction of apoptosis and cell death by PSVue 643 staining in WM9 melanoma cells treated for 72 h with the combination of Gamitrinib (Gami), Rapamycin, Phenformin (Phen), BEZ235 or 2,4-DNP at titrated doses and PLX4720 at 10 μM, PD0325901 at 1 μM and Gamitrinib at 2.5 μM. Cells treated with DMSO were used as the control. The data represent the average of 2 biological replicates. (B) Relative cell viability assessed by CellTiter Glo in WM9 cells treated for 72 h with DMSO, PLX4720 at 10 μM or the combination of PLX4720 at 10 μM and PD0325901 at 1 μM together with Gamitrinib at titrated doses. (C) Immunoblotting of proteins related to OxPhos, glycolysis, autophagy and the MAPK pathway in WM9 cells treated with PLX4720 at 10 μM and Gamitrinib as single inhibitors or in combination during a time course of 72 h. Cells treated with DMSO are used as the control. (D) Real-time oxygen consumption in WM9 cells subjected to the metabolic stress test with Seahorse XF 24 Analyzer. […] (H) Relative gene expression of 7 representative glycolysis genes assessed by qRT-PCR in WM9 cells treated for 48 h with DMSO or the combination of PLX4720 at 10 μM and PD0325901 at 1 μM with or without the addition of Gamitrinib at 2.5 μM. […]

[3] = test system: SOD2; test: SOD2 expression in WM9 cells (qRT-PCR, immunoblot); settings: WM9, 72 h, Gamitrinib 1 μM with MAPK pathway inhibitors
Method: One μg total mRNA was reverse transcribed using a Maxima First Strand cDNA Synthesis Kit for qRT-PCR (Thermo Fisher). Fast SYBR® Green Master Mix (Life Technologies) was used with cDNA template and primers to evaluate the expression of target genes and GAPDH. Primers used were purchased from Integrated DNA Technologies. Amplifications were performed using an Applied Biosystems® 7500 Real-Time PCR System (Life Technologies). All experiments were performed in triplicate. Expression ratios of controls were normalized to 1. Please see Extended Experimental Procedures for the list of PCR primer sequences.
Cells were washed with ice-cold PBS containing 100 μM Na3VO4 and scraped off culture dishes. After centrifugation, cell pellets were lysed in buffer containing 10 mM Tris-HCl, pH 7.8, 150 mM NaCl, 1 mM EDTA, 1% Nonidet P-40, 1 mM Na3VO4 and protease inhibitors (Roche complete protease inhibitor tablets). Lysates were cleared by micro-centrifugation and protein concentrations were determined with Protein Assay Dye Reagent Concentrate (Bio-Rad). For western blots, 25 μg of each lysate were run on 15-well 10% or 12% SDS-PAGE gels and transferred onto nitrocellulose membranes using a dye fast Trans-BlotR Turbo™ transfer system (Bio-Rad). […]

Substance: Gamitrinib
- mitochondrial DNA copy number [1]: decreases in mitochondrial DNA copy number
- oxygen consumption rates (basal respiration, proton leak, ATP production, maximal respiration, spare respiratory capacity) [2]: significantly inhibited all key parameters of OCR
- SOD2 expression compared to MAPK pathway inhibitors alone, mRNA and protein [3]: up-regulation of SOD2
